Data on 13 compounds can be found in patent US20230391772A1, “METHODS AND COMPOSITIONS FOR TARGETED PROTEIN DEGRADATION” (Ranok Therapeutics (Hangzhou) Co. Ltd., priority 2020, published 2023).

For one experiment, the target named is T1, HSP90a protein (Homo sapiens, UniProt P07900).
T1 construct: purchased BPS Bioscience 50298
Briefly: HSP90α-binding fluorescent polarization (FP) assay, BODIPY-labeled RNK04010 probe. To be noted: FP competition with RNK04010 (BODIPY-labeled), 5 nM, 300 min at 25° C. How it is done: HSP90α-Binding Fluorescent Polarization (FP) Assay
Binding of test compounds to HSP90a protein was measured by fluorescent polarization (FP) using the HSP90a (N-terminal) Assay Kit (BPS Bioscience, #50298), following the manufacturer's instructions, except as noted. Fluorescently labeled HSP90-binding compounds, either the provided FITC-geldanamycin (5 nM final concentration) or RNK04010, a triazolone-based HSP90 binding small molecule labeled with BODIPY through a piperizine-phenyl linker (5 nM final concentration) were employed. A 2.5-fold serial dilution of each test compound ranging from 20 μM to 5.2 nM was assayed for binding to HSP90a. After the final step of adding HSP90a protein to each assay well, plates were mixed by brief shaking, incubated at 25° C. for 120 min for FITC-geldanamycin or 300 min for RNK04010, and fluorescence was measured using a PerkinElmer EnVision Plate Reader.

Experiment [1] relates to MIA PaCa-2 human pancreatic carcinoma. Briefly: MIA PaCa-2 CCK-8 proliferation assay. Format: cell-based. To be noted: Homo sapiens, MIA PaCa-2, 72 h, MIA PaCa-2 cells. Here is the method: The following cancer cell lines were employed: BT-474 human breast carcinoma (ATCC, #HTB-20); MIA PaCa-2 human pancreatic carcinoma [2 copies KRAS(G12C)](ATCC, #CRL-1420); NCI-H23 human non-small cell lung cancer [1 copy KRAS(G12C)](ATCC, #CRL-5800); NCI-H358 human non-small cell lung cancer [1 copy KRAS(G12C)](ATCC, #CRL-5807); LU65A human lung carcinoma (Pharmaron, Beijing, China). Cell lines were cultured essentially according to ATCC and Pharmaron recommendations.
Cancer Cell Line Proliferation (CCK-8) Assays
3-fold serial dilutions of each test compound were prepared ranging from 20 μM to 1.02 nM.
% Inhibition=100−(D−B)/(S−B)*100%. • S: Absorbance of cells treated with DMSO • D: Absorbance of compound-treated cells • B: Absorbance of medium with DMSO without cells
For orientation: Tetrazolium dyes change colour on reduction, which living cells bring about.

`C=CC(=O)N1CCN(c2nc(NCCC(=O)NCc3ccc(CN4CCC(Cc5ccc(-n6c(C(=O)NC(C)C)nnc6-c6cc(C(C)C)c(O)cc6O)cc5)CC4)cc3)nc3c2CCN(c2cc(O)cc4ccccc24)C3)CC1` [Compound 126, 4-(4-((1-(4-((3-((4-(4-acryloylpiperazin-1-yl)-7-(3-hydroxynaphthalen-1-yl)-5,6,7,8-tetrahydropyrido[3,4-d]pyrimidin-2-yl)amino)propanamido)methyl)benzyl)piperidin-4-yl)methyl)phenyl)-5-(2,4-dihydroxy-5-isopropylphenyl)-N-isopropyl-4H-1,2,4-triazole-3-carboxamide, trifluoroacetic acid]: the half-maximal inhibitory concentration (IC50) on HSP90a protein is 100 to 1000 nM.

`C=CC(=O)N1CCN(c2nc(OC[C@@H]3CCN(C(=O)c4ccc5c(c4)CN(C(=O)c4cc(C(C)C)c(O)cc4O)C5)C3)nc3c2CCN(c2cccc4cccc(Cl)c24)C3)C[C@@H]1CC#N` [Compound 175, 2-((S)-1-acryloyl-4-(7-(8-chloronaphthalen-1-yl)-2-(((R)-1-(2-(2,4-dihydroxy-5-isopropylbenzoyl)isoindoline-5-carbonyl)pyrrolidin-3-yl)methoxy)-5,6,7,8-tetrahydropyrido[3,4-d]pyrimidin-4-yl)piperazin-2-yl)acetonitrile] gave an IC50 at HSP90a protein greater than 1000 nM.

As to `C=CC(=O)N1CCN(c2nc(OC[C@@H]3CCN(C(=O)c4ccc5c(c4)CN(C(=O)c4cc(CC)c(O)cc4O)C5)C3)nc3c2CCN(c2cccc4cccc(Cl)c24)C3)C[C@@H]1CC#N` [Compound 176, 2-((S)-1-acryloyl-4-(7-(8-chloronaphthalen-1-yl)-2-(((R)-1-(2-(5-ethyl-2,4-dihydroxybenzoyl)isoindoline-5-carbonyl)pyrrolidin-3-yl)methoxy)-5,6,7,8-tetrahydropyrido[3,4-d]pyrimidin-4-yl)piperazin-2-yl)acetonitrile], on HSP90a protein, the 50% inhibitory concentration (IC50) was greater than 1000 nM.

As for `CC(C)c1cc(-c2nnc(O)n2-c2ccc(CN3CCC(C(=O)N4CC[C@@H](COc5nc6c(c(N7CCN(C(=O)C(F)(F)F)[C@@H](CC#N)C7)n5)CCN(c5cccc7cccc(Cl)c57)C6)C4)CC3)cc2)c(O)cc1O` [Compound 177, 2-((S)-4-(7-(8-chloronaphthalen-1-yl)-2-(((R)-1-(1-(4-(3-(2,4-dihydroxy-5-isopropylphenyl)-5-hydroxy-4H-1,2,4-triazol-4-yl)benzyl)piperidine-4-carbonyl)pyrrolidin-3-yl)methoxy)-5,6,7,8-tetrahydropyrido[3,4-d]pyrimidin-4-yl)-1-(2,2,2-trifluoroacetyl)piperazin-2-yl)acetonitrile], at HSP90a protein, the 50% inhibitory concentration (IC50) lay within 100 to 1000 nM.

Regarding `C=CC(=O)N1CCN(c2nc(OC[C@@H]3CCN(C(=O)COc4ccc(Nc5cc(-n6nc(C(F)(F)F)c7c6CC(C)(C)CC7=O)ccc5C(N)=O)cc4)C3)nc3c2CCN(c2cccc4cccc(Cl)c24)C3)C[C@@H]1CC#N` [Compound 178, 2-((4-(2-((R)-3-(((4-((S)-4-acryloyl-3-(cyanomethyl)piperazin-1-yl)-7-(8-chloronaphthalen-1-yl)-5,6,7,8-tetrahydropyrido[3,4-d]pyrimidin-2-yl)oxy)methyl)pyrrolidin-1-yl)-2-oxoethoxy)phenyl)amino)-4-(6,6-dimethyl-4-oxo-3-(trifluoromethyl)-4,5,6,7-tetrahydro-1H-indazol-1-yl)benzamide], on HSP90a protein, the IC50 was greater than 1000 nM. In addition, the EC50 in experiment [1] was greater than 1000 nM.

In turn, `C=CC(=O)N1CCN(c2nc(OCC3CCN(C(=O)C4CCN(Cc5ccc(-n6c(O)nnc6-c6cc(C(C)C)c(O)cc6O)cc5)CC4)CC3)nc3c2CCN(c2cccc4cccc(Cl)c24)C3)C[C@@H]1CC#N` [Compound 179, (S)-2-(1-acryloyl-4-(7-(8-chloronaphthalen-1-yl)-2-((1-(1-(4-(3-(2,4-dihydroxy-5-isopropylphenyl)-5-hydroxy-4H-1,2,4-triazol-4-yl)benzyl)piperidine-4-carbonyl)piperidin-4-yl)methoxy)-5,6,7,8-tetrahydropyrido[3,4-d]pyrimidin-4-yl)piperazin-2-yl)acetonitrile] displayed an IC50 at HSP90a protein of less than 100 nM. Further, the EC50 in experiment [1] lay within 100 to 1000 nM.

In turn, `C=CC(=O)N1CCN(c2nc(OC[C@@H]3CCN(C(=O)C4CCN(Cc5ccc(-n6c(O)nnc6-c6cc(C)c(O)cc6O)cc5)CC4)C3)nc3c2CCN(c2cccc4cccc(Cl)c24)C3)C[C@@H]1CC#N` [Compound 180, 2-((S)-1-acryloyl-4-(7-(8-chloronaphthalen-1-yl)-2-(((R)-1-(1-(4-(3-(2,4-dihydroxy-5-methylphenyl)-5-hydroxy-4H-1,2,4-triazol-4-yl)benzyl)piperidine-4-carbonyl)pyrrolidin-3-yl)methoxy)-5,6,7,8-tetrahydropyrido[3,4-d]pyrimidin-4-yl)piperazin-2-yl)acetonitrile] showed a half-maximal inhibitory concentration (IC50) at HSP90a protein of 100 to 1000 nM. This compound registered a half-maximal effective concentration (EC50) in experiment [1] greater than 1000 nM.

On HSP90a protein, `C=CC(=O)N1CCN(c2nc(OC[C@@H]3CCN(C(=O)c4ccc(Nc5cc(-n6nc(C(F)(F)F)c7c6CC(C)(C)CC7=O)ccc5C(N)=O)cc4)C3)nc3c2CCN(c2cccc4cccc(Cl)c24)C3)C[C@@H]1CC#N` [Compound 181, 2-((4-((R)-3-(((4-((S)-4-acryloyl-3-(cyanomethyl)piperazin-1-yl)-7-(8-chloronaphthalen-1-yl)-5,6,7,8-tetrahydropyrido[3,4-d]pyrimidin-2-yl)oxy)methyl)pyrrolidine-1-carbonyl)phenyl)amino)-4-(6,6-dimethyl-4-oxo-3-(trifluoromethyl)-4,5,6,7-tetrahydro-1H-indazol-1-yl)benzamide] displayed an IC50 greater than 1000 nM. Moreover, the EC50 in experiment [1] is greater than 1000 nM.

The compound `C=CC(=O)N1CCN(c2nc(OC[C@@H]3CCN(CCCOCCC(=O)NCc4ccc(-n5c(O)nnc5-c5cc(C(C)C)c(O)cc5O)cc4)C3)nc3c2CCN(c2cccc4cccc(Cl)c24)C3)C[C@@H]1CC#N` [Compound 182, 3-(3-((R)-3-(((4-((S)-4-acryloyl-3-(cyanomethyl)piperazin-1-yl)-7-(8-chloronaphthalen-1-yl)-5,6,7,8-tetrahydropyrido[3,4-d]pyrimidin-2-yl)oxy)methyl)pyrrolidin-1-yl)propoxy)-N-(4-(3-(2,4-dihydroxy-5-isopropylphenyl)-5-hydroxy-4H-1,2,4-triazol-4-yl)benzyl)propanamide] showed an IC50 at HSP90a protein of less than 100 nM. Besides, the EC50 in experiment [1] was greater than 1000 nM.

In turn, `C=CC(=O)N1CCN(c2nc(OC[C@H]3CCN(C(=O)C4CCN(Cc5ccc(-n6c(O)nnc6-c6cc(C(C)C)c(O)cc6O)cc5)CC4)C3)nc3c2CCN(c2cccc4cccc(Cl)c24)C3)C[C@@H]1CC#N` [Compound 184, 2-((S)-1-acryloyl-4-(7-(8-chloronaphthalen-1-yl)-2-(((S)-1-(1-(4-(3-(2,4-dihydroxy-5-isopropylphenyl)-5-hydroxy-4H-1,2,4-triazol-4-yl)benzyl)piperidine-4-carbonyl)pyrrolidin-3-yl)methoxy)-5,6,7,8-tetrahydropyrido[3,4-d]pyrimidin-4-yl)piperazin-2-yl)acetonitrile] gave an IC50 at HSP90a protein of 100 to 1000 nM. The same compound showed an EC50 in experiment [1] of 100 to 1000 nM.

For `C=CC(=O)N1CCN(c2nc(OC[C@@H]3CN(C(=O)C4CCN(Cc5ccc(-n6c(C(=O)NCC(F)(F)F)nnc6-c6cc(C(C)C)c(O)cc6O)cc5)CC4)CCN3C)nc3c2CCN(c2cccc4cccc(Cl)c24)C3)C[C@@H]1CC#N` [Compound 199, 4-(4-((4-((S)-3-(((4-((S)-4-acryloyl-3-(cyanomethyl)piperazin-1-yl)-7-(8-chloronaphthalen-1-yl)-5,6,7,8-tetrahydropyrido[3,4-d]pyrimidin-2-yl)oxy)methyl)-4-methylpiperazine-1-carbonyl)piperidin-1-yl)methyl)phenyl)-5-(2,4-dihydroxy-5-isopropylphenyl)-N-(2,2,2-trifluoroethyl)-4H-1,2,4-triazole-3-carboxamide], the IC50 on HSP90a protein is less than 100 nM. The compound also gave a 50% effective concentration (EC50) in experiment [1] of 100 to 1000 nM.

In experiment [1], `C=CC(=O)N1CCN(c2nc(OCC3(CN4CCN(Cc5ccc(-n6c(C(=O)NCC)nnc6-c6cc(C(C)C)c(O)cc6O)cc5)CC4)CC3)nc3c2CCN(c2cccc(C)c2C)C3)C[C@@H]1CC#N` [Compound 291, 4-(4-{[4-({1-[({4-[(3S)-3-(cyanomethyl)-4-(prop-2-enoyl)piperazin-1-yl]-7-(2,3-dimethylphenyl)-5H,6H,8H-pyrido[3,4-d]pyrimidin-2-yl}oxy)methyl]cyclopropyl}-methyl)piperazin-1-yl]methyl}phenyl)-5-(2,4-dihydroxy-5-isopropylphenyl)-N-et-hyl-1,2,4-triazole-3-carboxamide] registered a concentration giving a half-maximal response (EC50) of less than 100 nM.

Compound `C=CC(=O)N1CCN(c2nc(OCC3(CN4CCN(Cc5ccc(-n6c(O)nnc6-c6cc(C(C)C)c(O)cc6O)cc5)CC4)CC3)nc3c2CCN(c2cccc(C)c2C)C3)C[C@@H]1CC#N` [Compound 292, 2-[(2S)-4-{2-[(1-{[4-({4-[3-(2,4-dihydroxy-5-isopropylphenyl)-5-hydroxy-1,2,4-triazol-4-yl]phenyl}methyl)piperazin-1-yl]methyl}cyclopropyl)methoxy]-7-(2,3-dimethylphenyl)-5H,6H,8H-pyrido[3,4-d]pyrimidin-4-yl}-1-(prop-2-enoyl)piperazin-2-yl]acetonitrile] gave a concentration giving a half-maximal response (EC50) in experiment [1] of 100 to 1000 nM.

As usually defined, the IC50 is the point on the concentration scale where inhibition reaches its midpoint. A higher IC50 goes with weaker potency. A word on the EC50: it is the concentration needed to bring the measured effect to its halfway point.
